Data on 44 compounds can be found in patent US8981094B2, “Piperidine/piperazine derivatives” (Janssen Pharmaceutica N.V., priority 2007, dated 2015).

One series has as its target T1, human DGAT1 (Homo sapiens, UniProt O75907).
T1 construct: FLAG (N); made in house; host or cells: SF9 insect cells (pFastBac baculovirus); total cell membranes
T1 sequence (O75907 1-488): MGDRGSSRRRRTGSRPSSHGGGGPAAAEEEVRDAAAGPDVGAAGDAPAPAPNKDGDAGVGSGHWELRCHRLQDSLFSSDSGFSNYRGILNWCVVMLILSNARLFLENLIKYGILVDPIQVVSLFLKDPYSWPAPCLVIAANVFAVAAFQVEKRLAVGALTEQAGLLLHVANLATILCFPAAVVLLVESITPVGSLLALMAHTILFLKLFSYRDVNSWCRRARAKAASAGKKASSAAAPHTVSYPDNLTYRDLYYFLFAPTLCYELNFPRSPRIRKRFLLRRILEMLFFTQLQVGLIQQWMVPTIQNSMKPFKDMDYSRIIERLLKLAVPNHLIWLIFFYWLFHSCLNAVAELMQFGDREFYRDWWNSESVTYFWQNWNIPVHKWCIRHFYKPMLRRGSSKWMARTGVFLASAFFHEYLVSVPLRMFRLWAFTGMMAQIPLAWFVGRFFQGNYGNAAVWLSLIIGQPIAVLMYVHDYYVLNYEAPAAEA
Put plainly: Inhibition of DGAT1 activity, FlashPlate assay with DGAT1 membrane preparations and substrate micelles. It counts as biochemical. Particulars: pIC50 = -logIC50, IC50 values expressed in M. Summed up: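 FLAG-tagged human DGAT1 membranes (expressed in Sf9 cells) were incubated 120 min at 37° C. in 50 mM Tris-HCl pH 7.4 with 150 mM MgCl2, 1 mM EDTA, 0.2% BSA, 50 μM DAG micelles (PC/PS) and 8.4 μM [^3H]-oleoylCoA. The reaction was stopped with N-ethylmaleimide and read as FlashPlate radioluminescence. Responses were normalized to enzyme/no-enzyme controls to fit dose-response curves.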

`O=C(Nc1ccc(N2CCN(C(=O)Nc3c(Cl)cccc3Cl)CC2)cc1)C(O)CCc1ccccc1` (stereo not shown) [Compound 48]: the melting point amounted to 253.4 °C. The compound further had an IC50 against human DGAT1 of 148 nM.
For the compound `O=C(CCCc1cccnc1)Nc1ccc(N2CCN(C(=O)Nc3c(Cl)cccc3Cl)CC2)cc1` [Compound 194], the melting point lay within 233 to 234 °C. Moreover, the half-maximal inhibitory concentration (IC50) against human DGAT1 is 33.9 nM.
The compound `COc1ccc(CNC(=O)c2ccc(N3CCN(C(=O)Nc4c(Cl)cc(CN(C(C)C)C(C)C)cc4Cl)CC3)cc2)cc1` [Compound 240] came in with a melting point of 208.87 °C. This compound showed a half-inhibitory concentration (IC50) against human DGAT1 of 81.3 nM.
Take `CC(O)c1cc(Cl)c(NC(=O)N2CCC(c3ccc(NC(=O)CCCc4ccccc4)cc3)CC2)c(Cl)c1` (stereo not shown) [Compound 273]: the melting point was in the range of 203 to 204 °C. Half-maximal inhibition against human DGAT1 (IC50) required 3.72 nM.
Regarding `Cc1cc(Br)cc(C)c1NC(=O)N1CCN(c2ccc(NC(=O)CCCc3ccccc3)cc2)CC1` [Compound 61], the melting point turned out to be 241.7 °C. In addition, at human DGAT1, the IC50 is 38 nM.
For `COc1ccc(CC(=O)Nc2ccc(N3CCN(C(=O)Nc4c(Cl)cc(CC[N+](C)(C)C)cc4Cl)CC3)cc2)cc1` [Compound 317], the melting point came out at 248.28 °C. This compound had a half-maximal inhibitory concentration (IC50) against human DGAT1 of 63.1 nM.
For `CN(C)CC(=O)Nc1ccc(N2CCN(C(=O)Nc3c(Cl)cccc3Cl)CC2)cc1` [Compound 200], the melting point is 245 to 246 °C. The same compound had an IC50 at human DGAT1 of 3630 nM.
Take `CCOCCNC(=O)c1ccc(N2CCN(C(=O)Cc3c(Cl)cccc3Cl)CC2)cc1` [Compound 262]: the melting point turned out to be 175.07 °C. Also, inhibition at human DGAT1 was half-maximal at 3240 nM (IC50).
In the same order, the values of `O=C(CCN(Cc1ccc(F)cc1)S(=O)(=O)c1ccccc1[N+](=O)[O-])Nc1ccc(N2CCN(C(=O)Nc3c(Cl)cccc3Cl)CC2)cc1` [Compound 175] are 215 to 216 °C and 24 nM.
Compound `O=C(NCc1ccco1)c1ccc(N2CCN(C(=O)Cc3c(Cl)cccc3Cl)CC2)cc1` [Compound 258] showed a melting point of 238.35 °C. At human DGAT1, this compound had a half-maximal inhibitory concentration (IC50) of 759 nM.
For `CC(C)NC(=O)N(C)CC(=O)Nc1ccc(N2CCN(C(=O)Nc3c(Cl)cccc3Cl)CC2)cc1` [Compound 14] the same measures were 217 to 219 °C and 316 nM.
As for `COc1ccc(CC(=O)Nc2ccc(N3CCN(C(=O)Nc4c(Cl)cc(C[N+]5([O-])CCCC5)cc4Cl)CC3)cc2)cc1` [Compound 299], the melting point was determined as 168.24 °C. This compound gave a half-inhibitory concentration (IC50) against human DGAT1 of 19.1 nM.
Compound `O=C(CCCc1ccccc1)Nc1ccc(N2CCN(C(=O)Nc3ccccc3Cl)CC2)cc1` [Compound 34] returned a melting point of 142.1 °C. Further, on human DGAT1, inhibition was half-maximal at 145 nM (IC50).
Compound `Cc1cc(Cl)c(CC(=O)N2CCN(c3ccc(C(=O)NCc4cccc(N5CCCC5)c4)cc3)CC2)c(Cl)n1` [Compound 242] displayed a melting point of 172.73 °C. Besides, the IC50 on human DGAT1 is 129 nM.
For `O=C(CCNc1ccccc1Cl)Nc1ccc(N2CCN(C(=O)Nc3c(Cl)cccc3Cl)CC2)cc1` [Compound 289] the same measures were 244 to 245 °C and 10.2 nM.
`O=C(CCCc1ccccc1)Nc1ccc(C2CCN(C(=O)Nc3c(Cl)cc(C(=O)O)cc3Cl)CC2)cc1` [Compound 301]: the melting point was in the range of 152 to 153 °C. Moreover, the midpoint of inhibition against human DGAT1, the IC50, lay at 20.9 nM.
Regarding `CCC(C)c1ccccc1NC(=O)N1CCN(c2ccc(NC(=O)CCCc3ccccc3)cc2)CC1` (stereo not shown) [Compound 86], the melting point is 207.8 °C. For the same compound, the IC50 at human DGAT1 was 1700 nM.
As for `O=C(CCCc1ccncc1)Nc1ccc(N2CCN(C(=O)Nc3c(Cl)cccc3Cl)CC2)cc1` [Compound 197], the melting point lay in the range of 251 to 252 °C. On human DGAT1, this compound showed a half-inhibitory concentration (IC50) of 123 nM.
In the same order, the values of `COC(=O)c1cc(Cl)c(NC(=O)N2CCC(c3ccc(NC(=O)CCCc4ccccc4)cc3)CC2)c(Cl)c1` [Compound 324] are 204 to 205 °C and 107 nM.
For `CSc1ccccc1NC(=O)N1CCN(c2ccc(NC(=O)CCCc3ccccc3)cc2)CC1` [Compound 79] the same measures were 127.1 °C and 1450 nM.
In turn, `COc1ccc(CC(=O)Nc2ccc(N3CCN(C(=O)Nc4c(Cl)cc(CN5CCN(S(C)(=O)=O)CC5)cc4Cl)CC3)cc2)cc1` [Compound 268] had a melting point of 224.69 °C. For the same compound, the half-maximal inhibitory concentration (IC50) on human DGAT1 is 1.7 nM.
The compound `O=C(CCCc1ccccc1)Nc1ccc(N2CCN(C(=O)Cc3ccccc3)CC2)cc1` [Compound 338] returned a melting point of 146.12 °C. This compound showed an IC50 against human DGAT1 of 2570 nM.
Regarding `O=C(CCCc1ccccc1)Nc1ccc(N2CCN(C(=O)Nc3c(Cl)cccc3C(F)(F)F)CC2)cc1` [Compound 62], the melting point was 254 °C. This compound gave an IC50 against human DGAT1 of 16.2 nM.
Take `O=C(CCCc1ccccc1)Nc1ccc(N2CCN(C(=S)Nc3c(Cl)cccc3Cl)CC2)cc1` [Compound 189]: the melting point was 238.7 °C. The compound further showed an IC50 against human DGAT1 of 12 nM.
`COc1ccc(CC(=O)Nc2ccc(N3CCN(C(=O)Oc4c(Cl)cc(CN(C)C)cc4Cl)CC3)cc2)cc1` [Compound 312]: the melting point was 182.46 °C. At human DGAT1, this compound gave a concentration for half-maximal inhibition (IC50) of 44.7 nM.
For `COc1ccc(CNC(=O)c2ccc(N3CCN(C(=O)Nc4c(Cl)cc(CN5CCCC5)cc4Cl)CC3)cc2F)cc1` [Compound 255] the same measures were 176.5 to 178 °C and 339 nM.
`O=C(CCCc1ccccc1)Nc1ccc(N2CCN(C(=O)Nc3c(Cl)cc(Br)c4c3CCO4)CC2)cc1` [Compound 46] showed a melting point of 223 °C. Also, the concentration for half-maximal inhibition (IC50) at human DGAT1 is 331 nM.
`CC(O)c1cc(Cl)c(NC(=O)N2CCN(c3ccc(N(C)C(=O)CCCc4ccccc4)cc3)CC2)c(Cl)c1` (stereo not shown) [Compound 335] came in with a melting point of 179.55 °C. In addition, it took 479 nM to reach half-maximal inhibition against human DGAT1 (IC50).
As to `CC(=O)c1cc(Cl)c(NC(=O)N2CCC(c3ccc(NC(=O)CCCc4ccccc4)cc3)CC2)c(Cl)c1` [Compound 319], the melting point was in the range of 160 to 161 °C. For the same compound, the IC50 at human DGAT1 was 66.1 nM.
For the compound `COc1ccc(CNC(=O)c2ccc(N3CCN(C(=O)Nc4c(Cl)cc(CN5CCCC5)cc4Cl)CC3)cc2)cc1` [Compound 232], the melting point was determined as 222.04 °C. This compound also had an IC50 on human DGAT1 of 46.8 nM.
For `COc1ccc(COC(=O)CCCC(=O)Nc2ccc(N3CCN(C(=O)Nc4c(Cl)cc(CN5CCCCC5)cc4Cl)CC3)cc2)cc1` [Compound 285] the same measures were 178 to 179 °C and 9.12 nM.
For the compound `CCOC(=O)CCCC(=O)Nc1ccc(N2CCN(C(=O)Nc3c(Cl)cc(CN4CCCCC4)cc3Cl)CC2)cc1` [Compound 318], the melting point is 211 to 212 °C. Moreover, on human DGAT1, the IC50 is 64.6 nM.
With `C=CC(=O)Nc1ccc(N2CCN(C(=O)Nc3c(Cl)cccc3Cl)CC2)cc1` [Compound 202], the melting point was 245 to 246 °C. The midpoint of inhibition against human DGAT1, the IC50, lay at 107 nM.
Take `C=CCN(CCC(=O)Nc1ccc(N2CCN(C(=O)Nc3c(Cl)cccc3Cl)CC2)cc1)c1ccc(C)cc1C` [Compound 183]: the melting point was 226 to 227 °C. The compound further had a concentration for half-maximal inhibition (IC50) at human DGAT1 of 12.6 nM.
`O=C(CNCc1ccc(Cl)cc1)Nc1ccc(N2CCN(C(=O)Nc3c(Cl)cccc3Cl)CC2)cc1` [Compound 178] gave a melting point of 183 to 184 °C. Moreover, the midpoint of inhibition on human DGAT1, the IC50, lay at 75.9 nM.
In the case of `O=C(CNCc1ccc(F)cc1)Nc1ccc(N2CCN(C(=O)Nc3c(Cl)cccc3Cl)CC2)cc1` [Compound 35], the melting point was 169.9 °C. Besides, at human DGAT1, the midpoint of inhibition, the IC50, lay at 240 nM.
For the compound `O=C(CCCc1ccccc1)Nc1ccc(N2CCN(/C=C/C(=O)c3c(Cl)cccc3Cl)CC2)cc1` [Compound 18], the melting point came to 178.2 °C. Further, the IC50 against human DGAT1 is 120 nM.
With `C=CCN(CC(=O)Nc1ccc(N2CCN(C(=O)Nc3c(Cl)cc(OC)cc3Cl)CC2)cc1)Cc1ccc(C)cc1C` [Compound 281], the melting point was in the range of 149 to 150 °C. This compound had a half-maximal inhibitory concentration (IC50) at human DGAT1 of 7.24 nM.
For `CC1CCCN1CCC(=O)Nc1ccc(N2CCN(C(=O)Nc3c(Cl)cccc3Cl)CC2)cc1` (stereo not shown) [Compound 176] the same measures were 232 to 233 °C and 6170 nM.
Turning to `CC(C)(C)CC(C)(C)NC(=O)N1CCN(c2ccc(NC(=O)CCCc3ccccc3)cc2)CC1` [Compound 85], the melting point was found to be 202.3 °C. Further, the IC50 on human DGAT1 is 1950 nM.
Turning to `O=C(CCCc1ccccc1)Nc1ccc(N2CCN(C(=O)Nc3c(F)cccc3F)CC2)cc1` [Compound 67], the melting point turned out to be 187 °C. Also, at human DGAT1, the half-inhibitory concentration (IC50) was 60.3 nM.
With `COc1ccc(CC(=O)Nc2ccc(N3CCN(C(=O)Nc4c(Cl)cc(C(=O)N5CCN(C)CC5)cc4Cl)CC3)cc2)cc1` [Compound 305], the melting point worked out at 253.39 °C. In addition, 24.5 nM corresponded to half-maximal inhibition on human DGAT1 (IC50).
For `CCc1ccccc1NC(=O)N1CCN(c2ccc(NC(=O)CCCc3ccccc3)cc2)CC1` [Compound 93] the same measures were 189 °C and 240 nM.
In turn, `CC(c1cc(Cl)c(NC(=O)N2CCN(c3ccc(NC(=O)CCCc4ccccc4)cc3)CC2)c(Cl)c1)N1CCCCC1` (stereo not shown) [Compound 56] yielded a melting point of 218 °C. Further, the midpoint of inhibition on human DGAT1, the IC50, lay at 16.2 nM.

Usually IC50 stands for the concentration that inhibits the measured activity by half. As usually defined, the melting point is the temperature of the solid-liquid transition.
